Measured values as given in patent US20250228239A1, “MOLECULES HAVING PESTICIDAL UTILITY, AND INTERMEDIATES, COMPOSITIONS, AND PROCESSES, RELATED THERETO” (priority 2024, published 2025).
Like-named read-outs stand apart in the source and are kept apart here.

Experiments:
Assay type in all cases: in vivo
[1] = tested on: Beet Armyworm (Spodoptera exigua, LAPHEG); experiment: Bioassays on Beet Armyworm (BAW), 128-well diet tray assay; details: Spodoptera exigua
Procedure, shortened: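 Percent larval mortality, averaged across eight wells, scored after five to seven days at 25° C. under 14:10 light-dark. Each well held one to five second instars feeding on diet dosed at 50 μg/cm^2 with compound from 90:10 acetone-water, solvent dried off.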

[2] = tested on: Cabbage Looper (Trichoplusia ni, TRIPNI); experiment: Bioassays on Cabbage Looper (CL), 128-well diet tray assay; details: Trichoplusia ni
Procedure, shortened: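 One to five second-instar larvae per well on artificial diet surface-treated with 50 μg/cm^2 test molecule (applied in 90:10 acetone-water, dried). Held 5–7 days at 25° C, 14:10 light-dark; percent mortality recorded per well and averaged over eight wells.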

[3] = tested on: Green Peach Aphid (Myzus persicae, MYZUPE); experiment: Bioassays on Green Peach Aphid (GPA), foliar spray on cabbage seedlings; details: 72 h
Description: Certain molecules disclosed in this document were tested against GPA using procedures described in the following example. In the reporting of the results, the “GPA & YFM Rating Table” was used (See Table Section).
Cabbage seedlings grown in 3-inch pots, with 2-3 small (3-5 cm) true leaves, were used as test substrate. The seedlings were infested with 20-50 GPA (wingless adult and nymph stages) one day prior to chemical application. Four pots with individual seedlings were used for each treatment. Test molecules (2 mg) were dissolved in 2 mL of acetone/methanol (1:1) solvent, forming stock solutions of 1000 ppm test molecule. The stock solutions were diluted 5× with 0.025% Tween 20 in water to obtain the solution at 200 ppm test molecule. A hand-held aspirator-type sprayer was used for spraying a solution to both sides of […] leaves until runoff. Reference plants (solvent check) were sprayed with the diluent only containing 20% by volume of acetone/methanol (1:1) solvent. Treated plants were held in a holding room for three days at approximately 25° C. and ambient relative humidity (RH) prior to grading. Evaluation was conducted by counting the number of live aphids per plant under a microscope. Percent control was measured using Abbott's correction formula (W. S. Abbott, “A Method of Computing the Effectiveness of an Insecticide” J. Econ. Entomol. 18 (1925), pp. 265-267) as follows. Corrected % Control=100*(X−Y)/X where X=No. of live aphids on solvent check plants and Y=No. of live aphids on treated plants. The results are indicated in the table entitled “Table ABC: Biological Results” (See Table Section).

[4] = tested on: Yellow Fever Mosquito (Aedes aegypti, AEDSAE); details: for YFM rating: Yellow Fever Mosquito, Table ABC / ABC-DP rating
Procedure, shortened: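 Rating-scale grades reflect larval mortality scored per well after 3 days at room temperature under non-evaporative lids. Larvae (~1 day old, hatched overnight in liver-powder water) were added to six daughter plates per compound, prepared from a 4000 ppm DMSO stock diluted in 90:10 water/acetone.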

[5] = Beet Armyworm, Table ABC / ABC-DP rating, read-out: BAW rating
[6] = Cabbage Looper, Table ABC / ABC-DP rating, read-out: CL rating

| SMILES | pest or weed control at 50 µg/cm2 [1, 5] [%] | pest or weed control at 50 µg/cm2 [2, 6] [%] | YFM rating [4] | further results |
| --- | --- | --- | --- | --- |
| Cc1c(Cl)cc(NC(=O)[C@H]2[C@H](c3ccc(F)c(Cl)c3)C2(Cl)Cl)cc1C(=O)Nc1ccc(F)cc1F (relative stereo) [F1190, trans-3-Chloro-5-(2,2-dichloro-3-(3-chloro-4-fluorophenyl)cyclopropane-1-carboxamido)-N-(2,4-difluorophenyl)-2-methylbenzamide] | – | – | – | pest or weed control at 50 µg/cm2 ([1]; Table ABC: Biological Results, species BAW, read-out: BAW): 50 to 100%; pest or weed control at 50 µg/cm2 ([2]; Table ABC: Biological Results, species CL, read-out: CL): 50 to 100%; pest or weed control at 200 µg/mL ([3]; Table ABC: Biological Results, species GPA, read-out: GPA): 80 to 100% |
| O=C(NNC(=O)c1cc(NC(=O)[C@H]2[C@H](c3cc(Cl)cc(Cl)c3)C2(Cl)Cl)ccc1Cl)Nc1ccccc1 (relative stereo) [F2537, trans-2-(2-Chloro-5-(2,2-dichloro-3-(3,5-dichlorophenyl)cyclopropane-1-carboxamido)benzoyl)-N-phenylhydrazine-1-carboxamide] | 50 to 100 | 50 to 100 | – | pest or weed control at 200 µg/mL ([3]; Green Peach Aphid, Table ABC / ABC-DP rating, read-out: GPA rating): 80 to 100% |
| C=C(F)C(=O)Nc1c(F)ccc(NC(=O)c2cc(NC(=O)[C@H]3[C@H](c4ccc(F)c(C(F)(F)F)c4)C3(Cl)Cl)ccc2Cl)c1F [F1870, 2-Chloro-5-((1R,3R)-2,2-dichloro-3-(4-fluoro-3-(trifluoromethyl)phenyl)cyclopropane-1-carboxamido)-N-(2,4-difluoro-3-(2-fluoroacrylamido)phenyl)benzamide] | 50 to 100 | 50 to 100 | A (80–100) | – |
| C=CCC(=O)Nc1c(F)ccc(NC(=O)c2cc(NC(=O)[C@H]3[C@H](c4ccc(F)c(C(F)(F)F)c4)C3(Cl)Cl)ccc2Cl)c1F [F1874, N-(3-(But-3-enamido)-2,4-difluorophenyl)-2-chloro-5-((1R,3R)-2,2-dichloro-3-(4-fluoro-3-(trifluoromethyl)phenyl)cyclopropane-1-carboxamido)benzamide] | 50 to 100 | 50 to 100 | A (80–100) | – |
| C=CCC(=O)Nc1c(F)ccc(NC(=O)c2cc(NC(=O)[C@H]3[C@H](c4ccc(F)c(Cl)c4)C3(Cl)Cl)ccc2Cl)c1F [F1876, N-(3-(But-3-enamido)-2,4-difluorophenyl)-2-chloro-5-((1R,3R)-2,2-dichloro-3-(3-chloro-4-fluorophenyl)cyclopropane-1-carboxamido)benzamide] | 50 to 100 | 50 to 100 | A (80–100) | – |
| C=CCC(=O)Nc1c(F)ccc(NC(=O)c2cc(NC(=O)[C@H]3[C@H](c4cccc(C(F)(F)F)c4)C3(Cl)Cl)ccc2Cl)c1F [F1878, N-(3-(But-3-enamido)-2,4-difluorophenyl)-2-chloro-5-((1R,3R)-2,2-dichloro-3-(3-(trifluoromethyl)phenyl)cyclopropane-1-carboxamido)benzamide] | 50 to 100 | 50 to 100 | A (80–100) | – |
| C=CCC(=O)Nc1c(F)ccc(NC(=O)c2cc(NC(=O)[C@H]3[C@H](c4cc(F)cc(C(F)(F)F)c4)C3(Cl)Cl)ccc2Cl)c1F [F1879, N-(3-(But-3-enamido)-2,4-difluorophenyl)-2-chloro-5-((1R,3R)-2,2-dichloro-3-(3-fluoro-5-(trifluoromethyl)phenyl)cyclopropane-1-carboxamido)benzamide] | 50 to 100 | 50 to 100 | A (80–100) | – |
| O=C(NCC(F)(F)F)c1cc(NC(=O)C2C(c3cc(Br)cc(S(F)(F)(F)(F)F)c3)C2(Cl)Cl)ccc1Cl (stereo not drawn) [F2009, cis-5-(3-(3-Bromo-5-(pentafluoro-λ^6-sulfanyl)phenyl)-2,2-dichiorocyclopropane-1-carboxamido)-2-chloro-N-(2,2,2-trifluoroethyl)benzamide] | 50 to 100 | 50 to 100 | A (80–100) | – |
| O=C(CCNC(=O)c1cc(NC(=O)C2C(c3cc(Cl)cc(Cl)c3)C2(Cl)Cl)ccc1Cl)NCC(F)(F)F [F2079, trans-2-Chloro-5-((1R,3R)-2,2-dichloro-3-(3,5-dichlorophenyl)cyclopropane-1-carboxamido)-N-(3-oxo-3-(2,2,2-trifluoroethylamino)propyl)benzamide] | 50 to 100 | 50 to 100 | A (80–100) | – |
| O=C(NCC(F)(F)C(F)(F)F)c1cc(NC(=O)[C@H]2[C@H](c3ccc(F)c(C(F)(F)F)c3)C2(Cl)Cl)c(F)cc1Cl [F2085, 2-Chloro-5-((1R,3R)-2,2-dichloro-3-(4-fluoro-3-(trifluoromethyl)phenyl)cyclopropane-1-carboxamido)-4-fluoro-N-(2,2,3,3,3-pentafluoropropyl)benzamide] | 50 to 100 | 50 to 100 | A (80–100) | – |
| CC(F)(F)CNC(=O)c1cc(NC(=O)C2C(c3cc(Cl)cc(Cl)c3)C2(Cl)Cl)cc(F)c1Cl (stereo not drawn) [F2087] | 50 to 100 | 50 to 100 | A (80–100) | – |
| CN(NC(=O)c1cc(NC(=O)[C@H]2[C@H](c3cc(Cl)cc(Cl)c3)C2(Cl)Cl)ccc1Cl)c1ccccc1 [F2510, (1R,3R)-2,2-Dichloro-N-(4-chloro-3-(2-methyl-2-phenylhydrazine-1-carbonyl)phenyl)-3-(3,5-dichlorophenyl)cyclopropane-1-carboxamide] | 50 to 100 | 50 to 100 | A (80–100) | – |
| CN(NC(=O)c1cc(NC(=O)[C@H]2[C@H](c3cc(Cl)c(Cl)c(Cl)c3)C2(Cl)Cl)ccc1Cl)c1ccccc1 [F2511, (1R,3R)-2,2-Dichloro-N-(4-chloro-3-(2-methyl-2-phenylhydrazine-1-carbonyl)phenyl)-3-(3,4,5-trichlorophenyl)cyclopropane-1-carboxamide] | 50 to 100 | 50 to 100 | A (80–100) | – |
| CN(NC(=O)c1cc(NC(=O)[C@H]2[C@H](c3ccc(F)c(Cl)c3)C2(Cl)Cl)ccc1Cl)c1ccccc1 [F2512, (1R,3R)-2,2-Dichloro-N-(4-chloro-3-(2-methyl-2-phenylhydrazine-1-carbonyl)phenyl)-3-(3-chloro-4-fluorophenyl)cyclopropane-1-carboxamide] | 50 to 100 | 50 to 100 | A (80–100) | – |
| CN(NC(=O)c1cc(NC(=O)[C@H]2[C@H](c3ccc(Cl)c(Cl)c3)C2(Cl)Cl)ccc1Cl)c1ccccc1 [F2513, (1R,3R)-2,2-Dichloro-N-(4-chloro-3-(2-methyl-2-phenylhydrazine-1-carbonyl)phenyl)-3-(3,4-dichlorophenyl)cyclopropane-1-carboxamide] | 50 to 100 | 50 to 100 | A (80–100) | – |
| CN(C(=O)c1cc(NC(=O)[C@H]2[C@H](c3ccc(Cl)c(Cl)c3)C2(Cl)Cl)ccc1Cl)N(C)c1ccccc1 [F2544, (1R,3R)-2,2-Dichloro-N-(4-chloro-3-(1,2-dimethyl-2-phenylhydrazine-1-carbonyl)phenyl)-3-(3,4-dichlorophenyl)cyclopropane-1-carboxamide] | 50 to 100 | 50 to 100 | A (80–100) | – |
| O=C(NN=Cc1ccccc1)c1cc(NC(=O)C2C(c3cc(Cl)cc(Cl)c3)C2(Cl)Cl)ccc1Cl (stereo not drawn) [F3001, trans-N-(3-(2-Benzylidenehydrazine-1-carbonyl)-4-chiorophenyl)-2,2-dichloro-3-(3,5-dichlorophenyl)cyclopropane-1-carboxamide] | 50 to 100 | 50 to 100 | A (80–100) | mortality at 50 µg/cm2 ([1]; 168 h, second instar larvae, 50 μg/cm^2 of test molecule on artificial diet, 25° C., five to seven days, average of eight wells, read-out: BAW % Control (or Mortality) rating): 50 to 100%; mortality at 50 µg/cm2 ([2]; 168 h, second instar larvae, 50 μg/cm^2 of test molecule on artificial diet, 25° C., five to seven days, average of eight wells, read-out: CL % Control (or Mortality) rating): 50 to 100%; YFM % Control (or Mortality) rating ([4]; about 1 day-old larvae, 4000 ppm master solution diluted with 90:10 water/acetone, 15 μL per well plus 220 μL larval mixture, 3 days, mortality): A (80–100) |
